What was measured:
[1] = system: 3 month-old WT mice; experiment: Alendronate treatment with or without osteocalcin, MWMT and NOR; format: in vivo, mouse
Description: For plasma injection experiments, 100 μl of plasma were injected 8 times during 24 days, via tail vein. Each group described is represented individually in each panel. For osteocalcin delivery in WT mice, pumps (Alzet micro-osmotic pump, Model 1002) delivering osteocalcin (30 ng/hr for 12 month-old and 90 ng/hr for 16 month-old mice), or vehicle, were surgically installed subcutaneously in the back of mice. […] Control mice receiving vehicle or mice receiving alendronate were implanted with osmotic pumps delivering vehicle only.
Morris water maze test: Animals are transported to the testing room in their home cages, and left undisturbed for at least 30 minutes prior to the first trial. The maze is comprised of a large swimming pool (150cm diameter) filled with water (23° C.) made opaque with non-toxic white paint. The pool is located in a brightly lit room filled with visual cues, including geometric figures on the walls of the maze demarking the four fixed starting positions of the trials, at (12:00, 3:00, 6:00 and 9:00). A 15 cm round platform is hidden 1 cm beneath the surface of the water at a fixed position. Each daily trial block consisted of four swimming trials, with each mouse starting from the same randomly chosen starting position. The starting position is varied between days. On day 1, mice that fail to find the platform within 2 min are guided to the platform. They must remain on the platform for 15 s before they are returned to their home cage. Mice are not guided to the platform after day 1, and the time it takes them to reach the platform over repeated trials ([…] for the next 10 days) is recorded as a measure of spatial learning.
Novel object recognition test (NOR): The NOR paradigm assesses the rodent's ability to recognize a novel object in the environment. The NOR task will be conducted, as previously described7, in an opaque plastic box using 2 different objects: (1) a clear plastic funnel (diameter 8.5 cm, maximal height 8.5 cm) and (2) a black plastic box (9.5 cm^3). These objects elicit equal levels of exploration as determined in pilot experiments (Denny, C. A., et al., 2012, Hippocampus 22:1188-1201; Oury, F., et al., 2013, Cell 155:228-241). The NOR paradigm consists of 3 exposures over the course of 3 days. On day 1, the habituation phase, mice are given 5 minutes to explore the empty arena, without any objects. On day 2, the familiarization phase, mice are given 10 minutes to explore 2 identical objects, placed at opposite ends of the box. On day 3, the test phase, mice are given 15 minutes to explore 2 objects, one novel object and a copy of the object from the familiarization phase. The object that serves as the novel object (either the funnel or the box) as well as the left/right starting position of the objects are counterbalanced within each group. Mice are placed in the center of the arena at the start of each exposure. […] Preference for the novel object is assessed based on the fraction of time that a mouse spends exploring the novel object compared to the familiar object. Exploration is scored from video recordings of each exposure and recorded using the Stopwatch program. […]
Streptavidin were added for 30 minutes at room temperature followed by PBS washes. […] For hormonal measurement; circulating levels of the carboxylated, undercarboxylated or uncarboxylated forms of osteocalcin were measured by ELISA. CTX content in serum (ng/ml) were measured with specific ELISAs (RatLaps™ (CTX-I) EIA (Immunodiagnosticsystems).

[2] = system: brainstem neurons (dorsal raphe 5-HT neurons, locus coeruleus, GABAergic interneurons); experiment: Whole cell current clamp recording in brainstem slices; format: cell-based, mouse; conditions: 3 μM, current clamp in slices
Description: Brain slice preparations and electrophysiological recordings were performed according to methods known in the art. Briefly, WT mice were anesthetized with ether and then decapitated. The brains were rapidly removed and immersed in an oxygenated bath solution at 40° C. containing (in mM): sucrose 220, KCl 2.5, CaCl2 1, MgC12 6, NaH2PO4 1.25, NaHCO3 26, and glucose 10 pH 7.3 with NaOH. Coronal slices (350 μm thick) containing dorsal raphe (DR) were cut on a vibratome and maintained in a holding chamber with artificial cerebrospinal fluid (ACSF) (bubbled with 5% CO2 and 95% O2) containing (in mM): NaCl 124, KCl 3, CaCl2 2, MgCl2 2, NaH2PO4 1.23, NaHCO3 26, glucose 10, pH 7.4 with NaOH, and were transferred to a recording chamber constantly perfused with bath solution (330 C) at 2 ml/min after at least a 1 hr recovery. Whole-cell current clamp was performed to observe action potentials in DR serotoninergic (5-HT) neurons with a Multiclamp 700A amplifier (Axon instrument, CA). Patch pipettes with a tip resistance of 4-6 MΩ were made of borosilicate glass (World Precision Instruments) with a Sutter pipette puller (P-97) and filled with a pipette solution containing (in mM): K-gluconate (or Cs-gluconate) 135, MgCl2 2, HEPES 10, EGTA 1.1, Mg-ATP 2, Na2-phosphocreatine 10, and Na2-GTP 0.3, pH 7.3 with KOH. After a giga-Ohm (GΩ) seal and whole-cell access were achieved, the series resistance (between 20 and 40 MΩ) was partially compensated by the amplifier. […] All data were sampled at 3-10 kHz and filtered at 1-3 kHz with an Apple Macintosh computer using Axograph 4.9 (Axon Instruments). Electrophysiological data were analyzed with Axograph 4.9 and plotted with Igor Pro software (WaveMetrics, Lake Oswego, Oreg.).

[3] = system: Tph2, Th, Gad1 expression in brainstem and midbrain explants; experiment: Gene expression (qPCR) in brainstem and midbrain explants; format: cell-based, mouse; conditions: leptin positive control; WT or Gprc6a−/− brainstem explants
Description: For gene expression studies, RNA was isolated from primary neurons or tissue using TRIZOL® (Invitrogen). cDNA synthesis was performed following a standard protocol from Invitrogen and qPCR analyses were done using specific quantitative PCR primers from SABiosciences (http://www.sabiosciences.com/RT2PCR.php).
Brains were dissected and incubated for 30 minutes in ice cold oxygenated artificial cerebrospinal fluid (ACSF). Brains were then sliced at 500 μm at the midbrain, −1.55 to −2.35 mm from the bregma, and at the level of the brainstem, from −4.04 to −4.48 mm and from −4.60 to −5.20 mm from the bregma, to include the median and dorsal raphe, respectively. These slices were incubated in ACSF for 1 h, constantly oxygenated (95% O2 and 5% CO2) […], after which they were treated with either osteocalcin (10 ng/ml) or PBS for four hours. Expression of Tph2, TH, GAD 1, GAD2, and Ddc was measured by qPCR.
To determine if osteocalcin acts directly on neurons to modulate neurotransmitter synthesis, several types of assays were performed. First, brainstem and midbrain explants from WT and Gprc6a^−/− mice were generated. Brains were sliced (500 μm) at the level of the median and dorsal raphe of the brainstem (from −4.04 to −4.48 mm and from −4.60 to −5.20 mm, respectively), so that they would be enriched in serotonin-producing neurons, as well as at the level of substantia nigrae and ventral tegmental areas (VTA) of the midbrain (from −1.55 to −2.35 mm and from −2.55 to −3.25 mm, respectively). Enrichment in serotoninergic and catecholaminergic neurons in these explants was verified by their high Tph2 and Th expression. While leptin, used here as a positive control, reduced, as it should, Tph2 expression in WT or Gprc6a^−/− brainstem explants, osteocalcin ([…]) increased expression of this gene 2.5 fold in both WT and Gprc6a^−/− explants. (FIG. 3D). […] Third, to further confirm that osteocalcin signals in neurons of the hindbrain, calcium flux in MPHN treated with undercarboxylated or carboxylated osteocalcin (FIG. 3F) was measured.

[4] = Blood brain barrier crossing: subcutaneous pump infusion, content in blood, bone and brain parts by ELISA; format: in vivo, mouse; conditions: ob/ob mice, subcutaneous infusion 50 ng/hour, seven days; positive control
Description: Osteocalcin−/−, Gprc6a−/−, Osteocalcin-mCherry, and Osteocalcin foxed mice have been previously described (Ducy et al., 1996, Nature 382:448-452; Oury et al., 2011, Cell 144:796-809). Mouse genotypes were determined by PCR. For all experiments, controls were littermate female WT, Cre-expressing, or flox/flox. All mice were maintained on a pure 129-Sv genetic background except for the inducible deletion Osteocalcin model (mix background: 25% C57/BL6 and 75% 129sv). For inducible gene deletion mice, tamoxifen was prepared in corn oil and injected intraperitoneally (IP) (1 mg/20g of body weight) over one week. For osteocalcin delivery to pregnant mice, IP injections (240 ng/day) were performed as soon as a plug was present daily until delivery (E0.5-E18.5). For osteocalcin or leptin infusion in adult Osteocalcin−/− or ob/ob mice, pumps (Alzet micro-osmotic pump, Model 1002) delivering osteocalcin (300 ng/hr), leptin (50 ng/hr), or vehicle were surgically installed subcutaneously in the backs of 3-month old mice. For the postnatal rescue of cognitive functions in Osteocalcin−/− mice, osteocalcin (10 ng/hour) or vehicle were delivered intrasubventricularly (icv) as previously described (Ducy et al., 2000, Cell 100:197-207). Leptin and osteocalcin content in sera and tissues were determined by ELISA.
To understand how this behavioral phenotype develops, whether osteocalcin crosses the blood brain barrier (BBB) was tested by installing pumps that subcutaneously delivered vehicle or uncarboxylated osteocalcin (50 ng/hour) in three-month-old Osteocalcin−/− mice. The positive control for this experiment was subcutaneous infusion of leptin (50 ng/hour) in 3 month-old ob/ob mice, since leptin is known to cross the BBB (Banks et al., 1996, Peptides 17:305-311). Seven days later, osteocalcin and leptin content were measured in blood, bone, and in various parts of the brain in Osteocalcin−/− and ob/ob mice, respectively.

## NCCCC(O)(P(=O)(O)O)P(=O)(O)O [alendronate]
[1]; 3 week-long treatment
  bone resorption: inhibited bone resorption
  circulating levels of bioactive osteocalcin: decreased the circulating levels of bioactive osteocalcin
[1]; alendronate-treated mice
  learning in the MWMT: delay in learning in the MWMT
  memory in NOR: memory deficit in NOR

## CN1CC(=O)N=C1N.NCCc1c[nH]c2ccc(O)cc12.O=S(=O)(O)O [serotonin creatinine sulfate complex, reference compound]
[2]
  action potentials in dorsal raphe 5-HT neurons: inhibited action potentials

B1: leptin (protein, UniProt P41160 22-167, looked up)
Leptin: VPIQKVQDDTKTLIKTIVTRINDISHTQSVSAKQRVTGLDFIPGLHPILSLSKMDQTLAVYQQVLTSLPSQNVLQIANDLENLRDLLHLLAFSKSCSLPQTSGLQKPESLDGVLEASLYSTEVVALSRLQGSLQDILQQLDVSPEC
notes: adipocyte-derived hormone, positive control known to cross the BBB
[3]
  Tph2 expression: reduced
[4]
  leptin content in parts of the brain: could be detected in the brainstem and hypothalamus

From patent US20200069775A1, “BRAIN OSTEOCALCIN RECEPTOR AND COGNITIVE DISORDERS” (The Trustees of Columbia University in the City of New York, priority 2017, published 2020)
